The values that follow come from patent publication US9265731B2, “Drying of drug-containing particles” (Bend Research, Inc., priority 2005, dated 2016).

The series can be described thus: In vitro dissolution test (microcentrifuge, PBS pH 6.5, 37° C., HPLC). It counts as physicochemical. The note with it: for Drug 1 Concentration: PBS pH 6.5, 290 mOsm/kg, 37° C., 1000 μg/mL if all drug dissolved. The procedure:
A sample of the solid amorphous dispersion used in Example 4 was evaluated before and after secondary drying in an in vitro dissolution test to determine the effect of drying on concentration enhancement relative to the crystalline form of Drug 1. As a control, Control 5 consisted of crystalline Drug 1 alone. For this test, a sufficient amount of Dispersion 1 and Control 5 material was added to microcentrifuge test tubes so that the concentration of Drug 1 would have been 1000 μg/mL in both cases if all of the drug had dissolved. The test was performed in duplicate. The tubes were placed in a 37° C. temperature-controlled chamber, and 1.8 mL PBS at pH 6.5 and 290 mOsm/kg was added to each tube. The samples were mixed using a vortex mixer for about 60 seconds. The samples were centrifuged at 13,000 G at 37° C. for 1 minute. The resulting supernatant solution was then sampled and diluted 1:6 (by volume) with methanol and then analyzed by high performance liquid chromatography (HPLC). The contents of each tube were mixed on the vortex mixer and allowed to stand undisturbed at 37° C. until the next sample was taken. Samples were collected at 4, 10, 20, 40, 90, and 1200 minutes.
The concentrations of drug obtained in these samples were used to determine the maximum concentration of drug (MDC90) and the area under the concentration-versus-time curve (AUC90) during the initial ninety minutes.

[1] abbreviates: PBS pH 6.5, 37° C., initial 90 min.

`CCOC(=O)N1c2ccc(C(F)(F)F)cc2[C@@H](N(Cc2cc(C(F)(F)F)cc(C(F)(F)F)c2)C(=O)OC)C[C@H]1CC` [Control 5, [2R,4S]4-[(3,5-bistrifluoromethyl-benzyl)-methoxycarbonyl-amino]-2-ethyl-6-trifluoromethyl-3,4-dihydro-2H-quinoline-1-carboxylic acid ethyl ester]: under setting [1], the “AUC90 (area under the concentration-versus-time curve during the initial ninety minutes)” value was below 88 µg·min/mL. The “MDC90 (maximum concentration of drug during the initial ninety minutes)” value under setting [1] was below 1 µg/mL. The AUC runs as follows: (time 0 min, PBS pH 6.5, 37° C.) 0 µg·min/mL; (time 4 min, PBS pH 6.5, 37° C.) below 2 µg·min/mL; (time 10 min, PBS pH 6.5, 37° C.) below 8 µg·min/mL; (time 20 min, PBS pH 6.5, 37° C.) below 18 µg·min/mL; (time 40 min, PBS pH 6.5, 37° C.) below 38 µg·min/mL; (time 90 min, PBS pH 6.5, 37° C.) below 88 µg·min/mL. Where the note is “time 1200 min, PBS pH 6.5, 37° C.”, the AUC is reported as <1,200 min*μg/mL. The “Drug 1 Concentration” value is, setting by setting: (time 0 min) 0 µg/mL; (time 4 min) below 1 µg/mL; (time 10 min) below 1 µg/mL; (time 20 min) below 1 µg/mL; (time 40 min) below 1 µg/mL; (time 90 min) below 1 µg/mL. Moreover, the “Drug 1 Concentration” value (time 1200 min) is below 1 µg/mL.

The AUC is concentration integrated over time. Lower therefore signals less exposure.
